# Measurements as given in patent publication US4348410A, “Cyclohexane carboxylic acid derivatives” (Nippon Chemiphar Co., Ltd., priority 1979, dated 1982).
# Like-named read-outs stand apart in the source and are kept apart here.
# Assays:
# trypsin = target: T1, trypsin (Bos taurus, UniProt P00760); assay: Inhibitory effects on trypsin (hydrolysis of p-tosylarginine methyl ester); type: biochemical; conditions: 37° C., 10 minutes; concentration not given
# T1 sequence (P00760 24-246): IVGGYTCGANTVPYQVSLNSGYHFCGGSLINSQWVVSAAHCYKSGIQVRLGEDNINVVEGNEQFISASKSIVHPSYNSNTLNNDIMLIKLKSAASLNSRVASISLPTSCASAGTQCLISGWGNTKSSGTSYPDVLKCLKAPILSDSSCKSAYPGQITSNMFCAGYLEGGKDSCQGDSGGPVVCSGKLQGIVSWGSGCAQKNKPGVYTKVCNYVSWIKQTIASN
# Method: In particular, inhibitory effects of the compounds on hydrolysis of p-tosylarginine methyl ester by trypsin were examined (incubated at 37° C. for 10 minutes).
# [1] = test system: cysteamine-induced duodenal ulcers; assay: Duodenal ulcers (cysteamine-induced); type: in vivo, Female Sprague-Dawley strain rats
# Method: Female Sprague-Dawley strain rats, weighing about 200 g were deprived of food for 24 hours prior to experiment. Cysteamine 400 mg/kg was given subcutaneously once to the rats. The animals were provided food and libitum from the 7 hours later. The test drug was given orally as aqueous suspension after 7 hours, the administration of cysteamine, then daily×4. On the next morning of the last administration, the animals were sacrificed under ether anesthesia. The ulcer area (mm^2) was measured and described as ulcer index.
# chymotrypsin = chymotrypsin (Bos taurus, UniProt P00766); assay: Inhibitory effects on chymotrypsin (hydrolysis of N-acetyl-L-tyrosine ethyl ester); type: biochemical; conditions: 37° C., 10 minutes; concentration not given
# Method: The compounds of the formula (I) have excellent inhibitory effects on protease. The inhibitory effects were determined by the following methods: Inhibitory effects on the compounds of chymotrypsin were determined according to the method described by M. […] In particular, inhibitory effects of the compounds on hydrolysis of N-acetyl-L-tyrosine ethyl ester by chymotrypsin were examined (incubated at 37° C. for 10 minutes).
# Acute toxicity = conditions: mouse, in vivo, po, 7 days observation
# Method: […]. The test drugs were given orally using gastric sonde. […] The LD50 value was calculated by the Probit method (C.I. Bliss).
# urokinase = urokinase (Homo sapiens, UniProt P00749); assay: Inhibitory effects on urokinase (hydrolysis of N-acetylglycyl lysine methyl ester); type: biochemical; conditions: 37° C., 10 minutes; concentration not given
# Method: The compounds of the formula (I) have excellent inhibitory effects on protease. The inhibitory effects were determined by the following methods: Inhibitory effects of the compounds on urokinase were determined according to the method described by A. J. Joeson et al (Throm. […]. 21, 259-272 (1969)). In particular, inhibitory effects of the compounds on hydrolysis of N-acetylglycyl lysine methyl ester by urokinase were determined (incubated at 37° C. for 10 minutes).
# gastric secretion = assay: Influence to the gastric secretion (pylorus ligation); type: in vivo, Male Sprague-Dawley strain rats
# Method: Male Sprague-Dawley strain rats, weighing 160-180 g were deprived of food but allowed free access to water for 20 hours prior to experiment. […] The test drug was given intraperitoneally immediately after pylorus ligation. The rats were sacrificed 3, 6 and 12 hours later and the stomachs removed. The gastric juice was collected and analyzed for volume. Then the gastric juice was centrifuged at 1300 g for 10 minutes at room temperature to give the supernatant. The total acidity and peptic activity of the supernatant were determined. Total acidity was determined by titrating with 0.01 N NaOH. […] Total acidity is shown as the titration volume (ml) and peptic activity is shown as the corresponding weight (mg) to crystal pepsin.
# Shay ulcers = Shay ulcers (pylorus ligation); type: in vivo, Male Sprague-Dawley strain rats; conditions: for Ulcer Grade 0 (number of rats): 0=no lesion; for Ulcer Grade 1 (number of rats): 1=hemorrhagic suffusion; for Ulcer Grade 2 (number of rats): 2=1-5 small ulcers (<3 mm); for Ulcer Grade 3 (number of rats): 3=many small ulcers (more than 5) or 1 ulcer of marked size; for Ulcer Grade 4 (number of rats): 4=many ulcers of marked size; for Ulcer Grade 5 (number of rats): 5=perforated ulcer
# Method: The rats were sacrificed 18 hours later by an overdose of ether and the stomach removed. The stomach was incised along the greater curvature and the surface area of each lesion in forestomach was measured by the naked eye. […] 4=many ulcers of marked size 5=perforated ulcer The test drugs were given intraperitoneally, immediately after pylorus ligation.
structure (smiles),measurement,setting,value
N=C(N)NC[C@H]1CC[C@H](C(=O)Oc2ccccc2C(=O)OCc2ccccc2)CC1 [Compound 1],Inhibition (%) Trypsin,trypsin,79%
same,Inhibition (%),[1]; 250 mg/kg orally,72.1%
same,Ulcer Index (mm^2),[1]; 250 mg/kg orally,22.5 ± 3.9 mm^2
same,Inhibition (%),[1]; 500 mg/kg orally,85.5%
same,Ulcer Index (mm^2),[1]; 500 mg/kg orally,11.7 ± 3.6 mm^2
same,Inhibition (%) Chymotrypsin,chymotrypsin,100%
same,LD50 at 168 h,"Acute toxicity; female mice, read-out: LD50 Female",> 8000 mg/kg
same,LD50 at 168 h,"Acute toxicity; male mice, read-out: LD50 male",7600 mg/kg
same,Inhibition (%) Urokinase,urokinase,32%
same,Gastric Contents Volume,"gastric secretion; 3 hours, 75 mg/kg i.p.",2.6 ± 0.4 mL
same,Gastric Contents Volume % change,"gastric secretion; 3 hours, 75 mg/kg i.p.",10.3%
same,Titratable Acid Output,"gastric secretion; 3 hours, 75 mg/kg i.p.",39.2 ± 11.6 μEg
same,Titratable Acid Output % change,"gastric secretion; 3 hours, 75 mg/kg i.p.",52.5%
same,Titratable Pepsin Output,"gastric secretion; 3 hours, 75 mg/kg i.p.",5.7 ± 1.5 mg
same,Titratable Pepsin Output % change,"gastric secretion; 3 hours, 75 mg/kg i.p.",1.7%
same,Gastric Contents Volume,"gastric secretion; 3 hours, 150 mg/kg i.p.",0.7 ± 0.3 mL
same,Gastric Contents Volume % change,"gastric secretion; 3 hours, 150 mg/kg i.p.",75.9%
same,Titratable Acid Output,"gastric secretion; 3 hours, 150 mg/kg i.p.",9.8 ± 3.3 μEg
same,Titratable Acid Output % change,"gastric secretion; 3 hours, 150 mg/kg i.p.",88.1%
same,Titratable Pepsin Output,"gastric secretion; 3 hours, 150 mg/kg i.p.",1.4 ± 0.7 mg
same,Titratable Pepsin Output % change,"gastric secretion; 3 hours, 150 mg/kg i.p.",75.9%
same,Gastric Contents Volume,"gastric secretion; 3 hours, 300 mg/kg i.p.",0.5 ± 0.2 mL
same,Gastric Contents Volume % change,"gastric secretion; 3 hours, 300 mg/kg i.p.",82.8%
same,Titratable Acid Output,"gastric secretion; 3 hours, 300 mg/kg i.p.",4.6 ± 3.3 μEg
same,Titratable Acid Output % change,"gastric secretion; 3 hours, 300 mg/kg i.p.",94.4%
same,Titratable Pepsin Output,"gastric secretion; 3 hours, 300 mg/kg i.p.",0.9 ± 0.6 mg
same,Titratable Pepsin Output % change,"gastric secretion; 3 hours, 300 mg/kg i.p.",84.5%
same,Gastric Contents Volume,"gastric secretion; 6 hours, 75 mg/kg i.p.",4.2 ± 0.6 mL
same,Gastric Contents Volume % change,"gastric secretion; 6 hours, 75 mg/kg i.p.",31.1%
same,Titratable Acid Output,"gastric secretion; 6 hours, 75 mg/kg i.p.",259.8 ± 61.8 μEq
same,Titratable Acid Output % change,"gastric secretion; 6 hours, 75 mg/kg i.p.",32.0%
same,Titratable Pepsin Output,"gastric secretion; 6 hours, 75 mg/kg i.p.",13.9 ± 3.0 mg
same,Titratable Pepsin Output % change,"gastric secretion; 6 hours, 75 mg/kg i.p.",35.9%
same,Gastric Contents Volume,"gastric secretion; 6 hours, 150 mg/kg i.p.",1.5 ± 0.3 mL
same,Gastric Contents Volume % change,"gastric secretion; 6 hours, 150 mg/kg i.p.",75.4%
same,Titratable Acid Output,"gastric secretion; 6 hours, 150 mg/kg i.p.",85.3 ± 49.4 μEq
same,Titratable Acid Output % change,"gastric secretion; 6 hours, 150 mg/kg i.p.",77.7%
same,Titratable Pepsin Output,"gastric secretion; 6 hours, 150 mg/kg i.p.",4.7 ± 1.1 mg
same,Titratable Pepsin Output % change,"gastric secretion; 6 hours, 150 mg/kg i.p.",78.3%
same,Gastric Contents Volume,"gastric secretion; 6 hours, 300 mg/kg i.p.",1.5 ± 0.3 mL
same,Gastric Contents Volume % change,"gastric secretion; 6 hours, 300 mg/kg i.p.",75.4%
same,Titratable Acid Output,"gastric secretion; 6 hours, 300 mg/kg i.p.",70.4 ± 30.4 μEq
same,Titratable Acid Output % change,"gastric secretion; 6 hours, 300 mg/kg i.p.",81.6%
same,Titratable Pepsin Output,"gastric secretion; 6 hours, 300 mg/kg i.p.",3.5 ± 1.4 mg
same,Titratable Pepsin Output % change,"gastric secretion; 6 hours, 300 mg/kg i.p.",83.9%
same,Gastric Contents Volume,"gastric secretion; 12 hours, 75 mg/kg i.p.",5.2 ± 2.1 mL
same,Gastric Contents Volume % change,"gastric secretion; 12 hours, 75 mg/kg i.p.",61.5%
same,Titratable Acid Output,"gastric secretion; 12 hours, 75 mg/kg i.p.",394.6 ± 136.5 μEq
same,Titratable Acid Output % change,"gastric secretion; 12 hours, 75 mg/kg i.p.",51.9%
same,Titratable Pepsin Output,"gastric secretion; 12 hours, 75 mg/kg i.p.",27.3 ± 8.6 mg
same,Titratable Pepsin Output % change,"gastric secretion; 12 hours, 75 mg/kg i.p.",52.9%
same,Gastric Contents Volume,"gastric secretion; 12 hours, 150 mg/kg i.p.",6.3 ± 0.9 mL
same,Gastric Contents Volume % change,"gastric secretion; 12 hours, 150 mg/kg i.p.",53.3%
same,Titratable Acid Output,"gastric secretion; 12 hours, 150 mg/kg i.p.",387.3 ± 79.3 μEq
same,Titratable Acid Output % change,"gastric secretion; 12 hours, 150 mg/kg i.p.",52.8%
same,Titratable Pepsin Output,"gastric secretion; 12 hours, 150 mg/kg i.p.",24.0 ± 4.2 mg
same,Titratable Pepsin Output % change,"gastric secretion; 12 hours, 150 mg/kg i.p.",58.6%
same,Gastric Contents Volume,"gastric secretion; 12 hours, 300 mg/kg i.p.",3.6 ± 0.6 mL
same,Gastric Contents Volume % change,"gastric secretion; 12 hours, 300 mg/kg i.p.",73.3%
same,Titratable Acid Output,"gastric secretion; 12 hours, 300 mg/kg i.p.",258.4 ± 66.9 μEq
same,Titratable Acid Output % change,"gastric secretion; 12 hours, 300 mg/kg i.p.",68.5%
same,Titratable Pepsin Output,"gastric secretion; 12 hours, 300 mg/kg i.p.",14.0 ± 2.4 mg
same,Titratable Pepsin Output % change,"gastric secretion; 12 hours, 300 mg/kg i.p.",75.9%
same,Ulcer Grade 0 (number of rats),Shay ulcers; 75 mg/kg i.p.,8
same,Ulcer Grade 1 (number of rats),Shay ulcers; 75 mg/kg i.p.,0
same,Ulcer Grade 2 (number of rats),Shay ulcers; 75 mg/kg i.p.,2
same,Ulcer Grade 3 (number of rats),Shay ulcers; 75 mg/kg i.p.,0
same,Ulcer Grade 4 (number of rats),Shay ulcers; 75 mg/kg i.p.,0
same,Ulcer Grade 5 (number of rats),Shay ulcers; 75 mg/kg i.p.,0
same,Ulcer Grade 0 (number of rats),Shay ulcers; 150 mg/kg i.p.,10
same,Ulcer Grade 1 (number of rats),Shay ulcers; 150 mg/kg i.p.,0
same,Ulcer Grade 2 (number of rats),Shay ulcers; 150 mg/kg i.p.,0
same,Ulcer Grade 3 (number of rats),Shay ulcers; 150 mg/kg i.p.,0
same,Ulcer Grade 4 (number of rats),Shay ulcers; 150 mg/kg i.p.,0
same,Ulcer Grade 5 (number of rats),Shay ulcers; 150 mg/kg i.p.,0
same,Ulcer Grade 0 (number of rats),Shay ulcers; 300 mg/kg i.p.,7
same,Ulcer Grade 1 (number of rats),Shay ulcers; 300 mg/kg i.p.,0
same,Ulcer Grade 2 (number of rats),Shay ulcers; 300 mg/kg i.p.,0
same,Ulcer Grade 3 (number of rats),Shay ulcers; 300 mg/kg i.p.,0
same,Ulcer Grade 4 (number of rats),Shay ulcers; 300 mg/kg i.p.,0
same,Ulcer Grade 5 (number of rats),Shay ulcers; 300 mg/kg i.p.,0
